# Source: patent US9274101B2 (BIOLOG, Inc., priority 2001, dated 2016)
# Like-named read-outs stand apart in the source and are kept apart here. Where a SMILES comes first, the peptide text is derived from it. [ ]: non-standard residue; d: D form.
# Experiments:
# HL-60 cells [1] = assay: HL-60 responses in PM1a, PM6, PM7 and PM8 plates; type: cell-based, human
# Protocol: In this Example, methods for testing unattached cells for their ability to use various carbon sources including di and tri-peptides are described.
# After washing, HL-60 cells were resuspended in DME-R. An aliquot of the cell suspension was counted by trypan blue exclusion and the cell density was adjusted to 1×10^6/mL. Fifty μL of DME-R were added to each well of the appropriate number of half area, 96-well plates. The cells were plated at a volume of 50 μL/well, giving a final cell density of 5×10^4/well. PM1a, MP6, PM7, and PM8 MICROPLATE testing plates were inoculated (these MICROPLATE testing plates are available from Biolog under license). For each plate containing chemicals and cells, a second, control plate containing only chemicals was prepared. All wells contained a total volume of 100 μL. Plates were incubated at 5% CO2, 90-100% humidity, and 37° C. for 1 hour prior to addition of the MTS/MPMS colorometric reagent (5 μL/well). The color formed in each well after an additional 24 hour incubation period, was measured on a plate reader at 490 nm with a reference wavelength of 650 nm. OD values from the control plate were subtracted from the OD values obtained with cells prior to normalizing the data to % negative control (cells without added energy source).
# E. coli MG1655 [2] = type: cell-based, Escherichia coli
# ten strains of E. coli = type: cell-based, Escherichia coli
# HL-60 cells [3] = assay: Effect of 10 mM citric acid on HL-60 energy utilization; type: cell-based, human
# E. coli MG1655 [4] = type: cell-based, Escherichia coli; remark: listed apart in the source
# [5] = PM6, PM7, PM8, positive = greater than 130% of the negative control
compound,measurement,setting,value
CC(C)C[C@H](NC(=O)CNC(=O)CN)C(=O)O,response of HL-60 cells to peptides,HL-60 cells [1],positive response
"O=P(O)(O)OCC(O)CO (racemic) [D,L-α-glycerol phosphate]","suitability as phosphorus source (growth, purple color)",E. coli MG1655 [2],positive
same,carbon source utilization,ten strains of E. coli,+ and −
C[C@@H](N)C(=O)N[C@H](C)C(=O)O [D-ala-D-ala] (H-[dA]-[dA]-OH),response of HL-60 cells to peptides,HL-60 cells [1]; [5],positive response
O=C1O[C@@H]([C@H](O)CO)[C@H](O)[C@H]1O [D-galactonic acid-γ-lactone],carbon source utilization,ten strains of E. coli,− and +
same,carbon source utilization (text),ten strains of E. coli,negative
same,"cell activity in the presence of citric acid, in words",HL-60 cells [3],capable of overcoming the antiproliferative effects of citric acid
O=C(CO)[C@@H](O)[C@H](O)[C@H](O)COP(=O)(O)O [Fructose-6-phosphate],"suitability as phosphorus source (growth, purple color)",E. coli MG1655 [2],positive
same,carbon source utilization,ten strains of E. coli,+
O=P(O)(O)O[C@H]1O[C@H](CO)[C@@H](O)[C@H](O)[C@H]1O [Glucose-1-phosphate],"suitability as phosphorus source (growth, purple color)",E. coli MG1655 [2],positive
same,carbon source utilization,ten strains of E. coli,+
O=C[C@H](O)[C@@H](O)[C@H](O)[C@H](O)COP(=O)(O)O [Glucose-6-phosphate],"suitability as phosphorus source (growth, purple color)",E. coli MG1655 [2],positive
same,carbon source utilization,ten strains of E. coli,+
N[C@@H](CS)C(=O)O [L-cysteine],"suitability as nitrogen source (growth, purple color)",E. coli MG1655 [4],not suitable
same,"suitability as sulfur source (growth, purple color)",E. coli MG1655 [2],positive
O=C1O[C@H]([C@@H](O)CO)[C@@H](O)[C@@H]1O [L-galactonic acid γ-lactone],carbon source utilization,ten strains of E. coli,+
same,"cell activity in the presence of citric acid, in words",HL-60 cells [3],capable of overcoming the antiproliferative effects of citric acid
COC(=O)CCC(=O)O [Mono-methyl succinate],carbon source utilization,ten strains of E. coli,+
same,"cell activity, % of the control without citric acid",HL-60 cells [3]; 10 mM citric acid,up to 210%
NC(=O)CC[C@H](N)C(=O)N[C@@H](CCC(=O)O)C(=O)O [gln-glu] (H-Gln-Glu-OH),response of HL-60 cells to peptides,HL-60 cells [1]; [5],positive response
NCC(=O)N[C@H](CO)C(=O)O [gly-D-ser] (H-Gly-[dS]-OH),response of HL-60 cells to peptides,HL-60 cells [1]; [5],positive response
CC(C)[C@@H](NC(=O)CN)C(=O)O [gly-D-val] (H-Gly-[dV]-OH),response of HL-60 cells to peptides,HL-60 cells [1]; [5],positive response
CC[C@H](C)[C@H](NC(=O)CNC(=O)CN)C(=O)O [gly-gly-ile] (H-Gly-Gly-Ile-OH),response of HL-60 cells to peptides,HL-60 cells [1]; [5],positive response
NCC(=O)NCC(=O)O [gly-gly] (H-Gly-Gly-OH),response of HL-60 cells to peptides,HL-60 cells [1]; [5],positive response
NCC(=O)N[C@@H](Cc1cnc[nH]1)C(=O)O [gly-his] (H-Gly-His-OH),response of HL-60 cells to peptides,HL-60 cells [1]; [5],positive response
CC(C)[C@H](NC(=O)CN)C(=O)O [gly-val] (H-Gly-Val-OH),response of HL-60 cells to peptides,HL-60 cells [1]; [5],positive response
Nc1nc2c(ncn2[C@@H]2O[C@H](CO)[C@H]3OP(=O)(O)O[C@H]32)c(=O)[nH]1 [guanosine 2′:3′-cyclic monophosphate],"suitability as phosphorus source (growth, purple color)",E. coli MG1655 [2],positive
Nc1nc2c(ncn2[C@@H]2O[C@H](CO)[C@@H](OP(=O)(O)O)[C@H]2O)c(=O)[nH]1 [guanosine 3′-monophosphate],"suitability as phosphorus source (growth, purple color)",E. coli MG1655 [2],positive
Nc1nc2c(ncn2[C@@H]2O[C@@H]3COP(=O)(O)O[C@H]3[C@H]2O)c(=O)[nH]1 [guanosine 3′:5′-cyclic monophosphate],"suitability as phosphorus source (growth, purple color)",E. coli MG1655 [2],not suitable
N[C@@H](Cc1cnc[nH]1)C(=O)N[C@@H](CC(=O)O)C(=O)O [his-asp] (H-His-Asp-OH),response of HL-60 cells to peptides,HL-60 cells [1]; [5],positive response
N[C@@H](Cc1cnc[nH]1)C(=O)N[C@@H](Cc1cnc[nH]1)C(=O)O [his-his],response of HL-60 cells to peptides,HL-60 cells [1]; [5],positive response
NCCS(=O)O [hypotaurine],"suitability as sulfur source (growth, purple color)",E. coli MG1655 [2],positive
CC[C@H](C)[C@H](N)C(=O)N[C@@H](CCC(N)=O)C(=O)O [ile-gln] (H-Ile-Gln-OH),response of HL-60 cells to peptides,HL-60 cells [1]; [5],positive response
O=P(O)(O)O[C@H]1[C@H](OP(=O)(O)O)[C@@H](OP(=O)(O)O)[C@H](OP(=O)(O)O)[C@@H](OP(=O)(O)O)[C@H]1OP(=O)(O)O [inositol hexaphosphate],"suitability as phosphorus source (growth, purple color)",E. coli MG1655 [2],not suitable
O=S(=O)(O)CCO [isethionate],"suitability as sulfur source (growth, purple color)",E. coli MG1655 [2],positive
N[C@@H](CSC[C@H](N)C(=O)O)C(=O)O [lanthionine],"suitability as sulfur source (growth, purple color)",E. coli MG1655 [2],positive
O=P(O)(O)OC1O[C@H](CO)[C@@H](O)[C@H](O)[C@@H]1O (some centres unmarked) [mannose 1-phosphate],"suitability as phosphorus source (growth, purple color)",E. coli MG1655 [2],positive
O=C[C@@H](O)[C@@H](O)[C@H](O)[C@H](O)COP(=O)(O)O [mannose 6-phosphate],"suitability as phosphorus source (growth, purple color)",E. coli MG1655 [2],positive
O=P(O)(O)CP(=O)(O)O [methylene diphosphonic acid],"suitability as phosphorus source (growth, purple color)",E. coli MG1655 [2],not suitable
O=[N+]([O-])c1ccc(OP(=O)(O)O)cc1 [nitrophenyl phosphate],"suitability as phosphorus source (growth, purple color)",E. coli MG1655 [2],not suitable
N[C@@H](Cc1ccccc1)C(=O)N[C@@H](CC(=O)O)C(=O)O [phe-asp] (H-Phe-Asp-OH),response of HL-60 cells to peptides,HL-60 cells [1]; [5],positive response
CN(CC(=O)O)C(=N)NP(=O)(O)O [phosphocreatine],"suitability as phosphorus source (growth, purple color)",E. coli MG1655 [2],positive
C=C(OP(=O)(O)O)C(=O)O [phosphoenol pyruvate],"suitability as phosphorus source (growth, purple color)",E. coli MG1655 [2],positive
O=C(O)COP(=O)(O)O [phosphoglycolic acid],"suitability as phosphorus source (growth, purple color)",E. coli MG1655 [2],positive
O=C(O)CP(=O)(O)O [phosphonoacetic acid],"suitability as phosphorus source (growth, purple color)",E. coli MG1655 [2],not suitable
C[C@H](NC(=O)[C@@H]1CCCN1)C(=O)O [pro-ala] (H-Pro-Ala-OH),response of HL-60 cells to peptides,HL-60 cells [1]; [5],positive response
O=C(O)[C@H](Cc1c[nH]c2ccccc12)NC(=O)[C@@H]1CCCN1 [pro-trp] (H-Pro-Trp-OH),response of HL-60 cells to peptides,HL-60 cells [1]; [5],positive response
O=P(O)(O)OP(=O)(O)O [pyrophosphate],"suitability as phosphorus source (growth, purple color)",E. coli MG1655 [2],not suitable
CC(C)CC(NC(=O)C(N)CO)C(=O)O (stereo not drawn) [ser-leu] (H-Ser-Leu-OH; configuration not given here),response of HL-60 cells to peptides,HL-60 cells [1]; [5],positive response
CSCC[C@H](NC(=O)[C@@H](N)CO)C(=O)O [ser-met] (H-Ser-Met-OH),response of HL-60 cells to peptides,HL-60 cells [1]; [5],positive response
N[C@@H](CO)C(=O)N[C@@H](Cc1ccccc1)C(=O)O [ser-phe],response of HL-60 cells to peptides,HL-60 cells [1],positive response
NCCS(=O)(=O)O [taurine],"suitability as sulfur source (growth, purple color)",E. coli MG1655 [2],positive
C[C@H](CCC(=O)NCCS(=O)(=O)O)[C@H]1CC[C@H]2[C@@H]3[C@H](O)C[C@@H]4C[C@H](O)CC[C@]4(C)[C@H]3C[C@H](O)[C@]12C [taurocholic acid],"suitability as sulfur source (growth, purple color)",E. coli MG1655 [2],positive
O=S1(=O)CCCC1 [tetramethylene sulfone],"suitability as sulfur source (growth, purple color)",E. coli MG1655 [2],not suitable
O=S(=O)(O)SSS(=O)(=O)O [tetrathionate],"suitability as sulfur source (growth, purple color)",E. coli MG1655 [2],positive
O=C(O)CS [thioglycolic acid],"suitability as sulfur source (growth, purple color)",E. coli MG1655 [2],not suitable
OP(O)(O)=S [thiophosphate],"suitability as phosphorus source (growth, purple color)",E. coli MG1655 [2],positive
same,"suitability as sulfur source (growth, purple color)",E. coli MG1655 [2],positive
O=S(O)(O)=S [thiosulfate],"suitability as sulfur source (growth, purple color)",E. coli MG1655 [2],positive
CSCC[C@H](NC(=O)[C@@H](N)[C@@H](C)O)C(=O)O [thr-met] (H-Thr-Met-OH),response of HL-60 cells to peptides,HL-60 cells [1]; [5],positive response
C[C@@H](O)[C@H](N)C(=O)N1CCC[C@H]1C(=O)O [thr-pro] (H-Thr-Pro-OH),response of HL-60 cells to peptides,HL-60 cells [1]; [5],positive response
Cc1cn([C@H]2C[C@@H]3OP(=O)(O)OC[C@H]3O2)c(=O)[nH]c1=O [thymidine 3′:5′-cyclic monophosphate],"suitability as phosphorus source (growth, purple color)",E. coli MG1655 [2],not suitable
Cc1cn([C@H]2C[C@H](O)[C@@H](COP(=O)(O)O)O2)c(=O)[nH]c1=O [thymidine 5′-monophosphate],"suitability as phosphorus source (growth, purple color)",E. coli MG1655 [2],positive
Cc1cn([C@H]2C[C@H](OP(=O)(O)O)[C@@H](CO)O2)c(=O)[nH]c1=O [thyrnidine 3′-monophosphate],"suitability as phosphorus source (growth, purple color)",E. coli MG1655 [2],positive
O=P(O)(O)OP(=O)(O)OP(=O)(O)O [tripolyphosphate],"suitability as phosphorus source (growth, purple color)",E. coli MG1655 [2],not suitable
O=c1ccn([C@@H]2O[C@H](CO)[C@@H](O)[C@H]2OP(=O)(O)O)c(=O)[nH]1 [uridine 2′-monophosphate],"suitability as phosphorus source (growth, purple color)",E. coli MG1655 [2],positive
O=c1ccn([C@@H]2O[C@H](CO)[C@H]3OP(=O)(O)O[C@H]32)c(=O)[nH]1 [uridine 2′:3′-cyclic monophosphate],"suitability as phosphorus source (growth, purple color)",E. coli MG1655 [2],positive
O=c1ccn([C@@H]2O[C@@H]3COP(=O)(O)O[C@H]3[C@H]2O)c(=O)[nH]1 [uridine 3′:5′-cyclic monophosphate],"suitability as phosphorus source (growth, purple color)",E. coli MG1655 [2],not suitable
O=P(O)(O)OC(CO)CO [β-glycerophosphate],"suitability as phosphorus source (growth, purple color)",E. coli MG1655 [2],positive
O-acetyle-serine with sodium sulfate,"suitability as sulfur source (growth, purple color)",E. coli MG1655 [2],positive
phosphatidyl glycerol,"suitability as phosphorus source (growth, purple color)",E. coli MG1655 [2],not suitable
